Measurements reported in publication PMC6199744, “Development of Chemical Proteomics for the Folateome and Analysis of the Kinetoplastid Folateome” (ACS Infectious Diseases, 2018).
Like-named read-outs stand apart in the source and are kept apart here.

What was measured:
Type in all cases: binding
[1] = target: T1, HeLa cell extract proteins (Homo sapiens, UniProt P06733)
T1 construct: endogenous in cells; host or cells: HeLa cell extract

[2] = target: T2, HeLa cell extract proteins (Homo sapiens, UniProt O75521)
T2 construct: endogenous in cells; host or cells: HeLa cell extract
T2 sequence (O75521 39-394): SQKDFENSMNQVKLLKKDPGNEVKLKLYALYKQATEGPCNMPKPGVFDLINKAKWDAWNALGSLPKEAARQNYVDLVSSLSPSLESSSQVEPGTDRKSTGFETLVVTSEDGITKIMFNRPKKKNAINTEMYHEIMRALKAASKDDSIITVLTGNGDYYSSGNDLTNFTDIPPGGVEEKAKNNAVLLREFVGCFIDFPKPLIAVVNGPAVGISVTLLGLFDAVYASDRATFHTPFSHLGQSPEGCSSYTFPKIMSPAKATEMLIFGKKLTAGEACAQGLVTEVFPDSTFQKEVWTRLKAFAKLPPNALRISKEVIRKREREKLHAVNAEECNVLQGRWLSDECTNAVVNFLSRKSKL

[3] = target: T3, HeLa cell extract proteins (Homo sapiens, UniProt Q12769)
T3 construct: endogenous in cells; host or cells: HeLa cell extract
T3 sequence (Q12769 1-1436): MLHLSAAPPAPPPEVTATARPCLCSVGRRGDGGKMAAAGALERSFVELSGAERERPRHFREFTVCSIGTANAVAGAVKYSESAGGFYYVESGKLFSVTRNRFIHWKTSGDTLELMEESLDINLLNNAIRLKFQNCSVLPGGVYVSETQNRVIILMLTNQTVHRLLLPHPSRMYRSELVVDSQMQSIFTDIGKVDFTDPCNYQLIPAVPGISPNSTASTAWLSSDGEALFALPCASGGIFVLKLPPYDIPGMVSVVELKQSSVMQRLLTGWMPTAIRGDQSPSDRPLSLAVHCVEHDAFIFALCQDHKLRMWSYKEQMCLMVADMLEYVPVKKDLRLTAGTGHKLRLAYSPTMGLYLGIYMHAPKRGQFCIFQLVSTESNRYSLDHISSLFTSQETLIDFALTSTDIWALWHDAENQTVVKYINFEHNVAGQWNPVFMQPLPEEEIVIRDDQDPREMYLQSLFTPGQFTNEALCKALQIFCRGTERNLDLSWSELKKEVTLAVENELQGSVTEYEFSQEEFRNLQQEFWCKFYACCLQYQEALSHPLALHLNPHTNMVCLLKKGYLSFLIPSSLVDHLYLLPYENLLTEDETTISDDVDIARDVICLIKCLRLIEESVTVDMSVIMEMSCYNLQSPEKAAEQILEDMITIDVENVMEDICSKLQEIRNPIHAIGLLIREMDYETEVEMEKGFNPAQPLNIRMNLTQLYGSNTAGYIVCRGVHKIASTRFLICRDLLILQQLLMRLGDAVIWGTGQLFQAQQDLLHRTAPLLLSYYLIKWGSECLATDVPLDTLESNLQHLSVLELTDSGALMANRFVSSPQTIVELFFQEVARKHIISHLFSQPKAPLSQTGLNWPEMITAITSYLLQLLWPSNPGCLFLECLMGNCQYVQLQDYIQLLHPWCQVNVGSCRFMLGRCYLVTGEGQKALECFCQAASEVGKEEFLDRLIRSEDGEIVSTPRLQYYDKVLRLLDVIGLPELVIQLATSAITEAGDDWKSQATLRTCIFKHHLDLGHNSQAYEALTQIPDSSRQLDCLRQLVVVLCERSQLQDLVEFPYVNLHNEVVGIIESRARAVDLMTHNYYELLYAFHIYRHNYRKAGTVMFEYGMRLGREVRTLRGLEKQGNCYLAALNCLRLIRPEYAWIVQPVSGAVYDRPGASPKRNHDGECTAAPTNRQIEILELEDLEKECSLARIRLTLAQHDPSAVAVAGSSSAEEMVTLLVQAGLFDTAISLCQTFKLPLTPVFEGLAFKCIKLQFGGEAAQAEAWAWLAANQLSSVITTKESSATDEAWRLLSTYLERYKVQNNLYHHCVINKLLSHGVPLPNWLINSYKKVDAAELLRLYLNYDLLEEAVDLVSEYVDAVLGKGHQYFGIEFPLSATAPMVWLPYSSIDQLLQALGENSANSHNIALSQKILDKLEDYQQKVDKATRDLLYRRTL

[4] = target: T4, HeLa cell extract proteins (Homo sapiens, UniProt O00330)
T4 construct: endogenous in cells; host or cells: HeLa cell extract
T4 sequence (O00330 54-501): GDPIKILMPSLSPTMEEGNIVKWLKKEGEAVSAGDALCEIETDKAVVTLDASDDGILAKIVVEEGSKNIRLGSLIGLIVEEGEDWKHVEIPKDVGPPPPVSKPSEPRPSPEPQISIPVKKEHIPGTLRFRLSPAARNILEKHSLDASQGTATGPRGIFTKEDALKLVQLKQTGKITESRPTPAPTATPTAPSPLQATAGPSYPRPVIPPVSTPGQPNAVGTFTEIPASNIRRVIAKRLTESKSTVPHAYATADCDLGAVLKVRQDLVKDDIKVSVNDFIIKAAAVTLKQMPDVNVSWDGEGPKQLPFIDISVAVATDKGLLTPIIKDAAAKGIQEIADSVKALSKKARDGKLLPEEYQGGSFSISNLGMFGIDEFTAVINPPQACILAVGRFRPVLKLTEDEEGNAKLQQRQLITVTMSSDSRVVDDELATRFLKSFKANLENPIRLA

[5] = HeLa, protein PDHX (PYRUVATE DEH[…] X COMPONENT, MIT[…])
[6] = HeLa, protein ENO1 (ISOFORM ALPHA-ENOLASE OF ALPHA-ENOLASE.)

T1 sequence (P06733 whole entry): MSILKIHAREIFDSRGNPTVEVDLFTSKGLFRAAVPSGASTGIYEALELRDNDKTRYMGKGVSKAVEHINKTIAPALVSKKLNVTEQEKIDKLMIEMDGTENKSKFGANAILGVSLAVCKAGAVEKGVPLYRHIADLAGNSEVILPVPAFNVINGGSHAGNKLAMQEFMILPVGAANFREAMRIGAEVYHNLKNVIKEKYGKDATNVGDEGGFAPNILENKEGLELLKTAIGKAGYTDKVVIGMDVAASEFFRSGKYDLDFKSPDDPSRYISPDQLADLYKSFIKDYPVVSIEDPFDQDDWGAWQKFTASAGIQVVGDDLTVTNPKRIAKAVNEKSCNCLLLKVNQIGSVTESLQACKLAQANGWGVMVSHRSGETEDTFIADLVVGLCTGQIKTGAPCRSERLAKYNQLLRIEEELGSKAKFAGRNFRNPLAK

| Compound | fold changes relative to vehicle control ([1]; HeLa, protein ENO1) | fold changes relative to vehicle control ([2]; HeLa, captured protein PECI) | fold changes relative to vehicle control ([3]; HeLa, captured protein NUP160) | fold changes relative to vehicle control [1, 6] | fold changes relative to vehicle control ([2]; protein PECI, HeLa) | fold changes relative to vehicle control ([3]; HeLa, protein NUP160) | fold changes relative to vehicle control ([4]; protein PDHX, HeLa) | other results |
| --- | --- | --- | --- | --- | --- | --- | --- | --- |
| Nc1nc2c(c(=O)[nH]1)N(C=O)C(CNc1ccc(C(=O)N[C@@H](CCC(=O)O)C(=O)O)cc1)CN2 (stereo partly shown) [LEU, leucovorin] | 1.07 | 1.06 | 1.02 | – | – | – | – | fold changes relative to vehicle control [4, 5]: 1.05 |
| NCCCNc1ccc(C(=O)NC(CCC(=O)O)C(=O)O)cc1 (stereo not shown) [compound 7] | 0.9 | 1.03 | 1.12 | – | – | – | – | fold changes relative to vehicle control [4, 5]: 1.02 |
| CCCCCCOc1cccc(Cc2cnc(N)nc2N)c1 [compound 2] | – | – | – | 2.6 fold | 0.82 | 1.11 | 0.43 | – |
| CCCCCCOc1ccc(Cc2cnc(N)nc2N)cc1 [compound 1] | – | – | – | 1.47 fold | 0.99 | 1.03 | 1 | – |
| Nc1nc2cccc(-c3ccccc3)c2n1Cc1ccc(Cl)c(Cl)c1 [compound 3] | – | – | – | 0.84 fold | 1.05 | 1.2 | 1.12 | – |
| NCCOCCOCC(=O)Nc1nc2ncc(CNc3ccc(C(=O)NC(CCC(=O)O)C(=O)O)cc3)nc2c(=O)[nH]1 (stereo not shown) [compound 6] | 1.26 | 0.96 | 1.14 | – | – | – | – | fold changes relative to vehicle control ([4]; HeLa, protein PDHX (PYRUVATE DEHYDROGENASE PROTEIN X COMPONENT, MITOCHONDRIAL PRECURSOR)): 0.92 |
| Nc1nc2[nH]cc(CCc3ccc(C(=O)N[C@@H](CCC(=O)O)C(=O)O)cc3)c2c(=O)[nH]1 [PTX, pemetrexed] | – | – | – | – | – | – | – | fold changes relative to vehicle control [1]: 1.14; fold changes relative to vehicle control [2]: 1.01; fold changes relative to vehicle control [3]: 1.07; fold changes relative to vehicle control [4]: 0.98 |
